Reference: patent US20220282237A1, “NOVEL FUCOSE ISOMERASE AND FUCOSE PRODUCTION METHOD USING SAME” (Korea University Research and Business Foundation, priority 2019, published 2022)
Like-named read-outs stand apart in the source and are kept apart here.

Columns and labels:
RdFucI [1] = assay type: biochemical, Raoultella sp. KDH 14
RdFucI [2] = experiment: Substrate specificity of RdFucI; assay type: biochemical, Raoultella sp. KDH 14; conditions: aldose and ketose substrates tested
Text: In general, sugar isomerases show reactivity for various sugars. As a result of testing with various aldoses (L-fucose, D-arabinose, D-altrose, D-galactose, D-mannose and D-glucose) and ketose substrates (L-fuculose, D-ribulose, D-psicose, D-tagatose and D-fructose), the highest activity was shown against L-fuculose (115.3 U/mg) and D-ribulose (127.3 U/mg), showing much higher activities compared to activities for the other tested aldose and ketose substrates.

[3] = pH effect on RdFucI activity for fuculose; assay type: biochemical, Raoultella sp. KDH 14
[4] = target: the molecule itself; experiment: crystal structure, self-association of subunits
[5] = Reversible reaction between L-fucose and L-fuculose by RdFucI; assay type: biochemical, Raoultella sp. KDH 14; conditions: 10 mM substrate, 20 mM sodium phosphate pH 7, 1.5 μg RdFucI, 30° C., 1 mM MnCl2
Experimental: In order to identify what kind of reaction RdFucI favored in a reaction between fucose and fuculose, a reversible reaction of the recombinant enzyme was investigated over time. For this purpose, 10 mM L-fucose (FIG. 4a) or L-fuculose (FIG. 4b) included in 20 mM sodium phosphate (pH7) was used as a substrate, and was each reacted with 1.5 μg of RdFucI at 30° C. in the presence of 1 mM MnCl2, and L-fucose was experimentally quantified. In contrast, L-fuculose was expressed as a calculated value.

[6] = Temperature effect on RdFucI activity for fuculose; assay type: biochemical, Raoultella sp. KDH 14
Text: (80% or more of the maximum activity) (FIG. 5a).

[7] = effect of metal ion on RdFucI activity, fuculose as substrate, Control = 100

Molecule | effect of metal ion on enzyme activity (in words) (RdFucI [1]; RdFucI) | Relative activity (%) (RdFucI [1]; [7]) | also measured
[Ca+2].[Cl-].[Cl-] [CaCl2] | inhibit the enzyme activity | 64 ± 8% | –
[Cl][Cd][Cl] [CdCl2] | increase the enzyme activity | 183 ± 9% | –
[Cl-].[Cl-].[Co+2] [CoCl2] | – | – | Relative activity (%) (RdFucI [1]): 353 ± 83%; effect of metal ion on enzyme activity (in words) (RdFucI [1]): increase the enzyme activity
[Cl-].[Cs+] [CsCl2] | – | 101 ± 16% | –
[Cl][Cu][Cl] [CuCl2] | inhibit the enzyme activity | 58 ± 7% | –
O=C(CO)[C@H](O)[C@H](O)CO [D-ribulose] | – | – | activity of RdFucI against substrate (RdFucI [2]): 127.3 U/mg
O=C(O)CN(CCN(CC(=O)O)CC(=O)O)CC(=O)O [EDTA] | – | – | Relative activity (%) (RdFucI [1]): 77 ± 12%
[Cl][Fe]([Cl])[Cl] [FeCl3] | inhibit the enzyme activity | 74 ± 3% | –
C[C@H](O)[C@@H](O)[C@@H](O)C(=O)CO [L-fuculose] | – | – | activity of RdFucI against substrate (RdFucI [2]): 115.3 U/mg
O=S(=O)([O-])[O-].[Li+].[Li+] [LiSO4] | – | 101 ± 15% | –
[Cl-].[Cl-].[Mg+2] [MgCl2] | increase the enzyme activity | 533 ± 31% | –
[Cl][Mn][Cl] [MnCl2] | increase the enzyme activity | 738 ± 70% | increase of enzyme activity in the presence of the metal ion (RdFucI [1]; RdFucI, fuculose as substrate): about 7 fold
[Cl][Ni][Cl] [NiCl2] | – | 91 ± 13% | –
[Cl-].[Cl-].[Zn+2] [ZnCl2] | increase the enzyme activity | 159 ± 4% | –
Tris-HCl [Tris-HCl buffer] | – | – | RdFucI activity in the buffer versus other buffer types at the same pH (in words) ([3]; pH 7, 8 and 9, 50 mM, 40° C.): much lower
L-fucose isomerase derived from Raoultella sp. KDH 14 strain (enzyme, also called RdFucI; Rd FucI) MKRISLPKIGIRPVIDGRRMGVRESLEAQTMNMAKATAALISEKLRHACGAQIECVIADTCIAGMAESAACEEKFSRQNVGVTITVTPCWCYGSETIDMDPLRPKAIWGFNGTERPGAVYLAAALAAHSQKGIPAFSIYGHDVQDADDTTIPADVEEKLLRFARAGLAVASMKGKSYLSVGGVSMGIAGSIVDHNFFESWLGMKVQAVDMTELRRRIDQKIYDEVELEMALAWADKNFRYGEDQNAQHYKRDEEQSRAVLKESLLMAMCIRDMMQGNEKLAEKGLLEESLGYNAIAAGFQGQRHWTDQYPNGDTAEALLNSSFDWNGVREPFVVATENDSLNGVAMLMGHQLTGTAQVFADVRTYWSPDAVERVTGQPLTGLAEHGIIHLINSGSAALDGSCQQRDEEGKPTMKPHWEISQKEADACLAATEWCPAIHEYFRGGGYSSRFLTEGGVPFTMTRVNLIKGLGPVLQIAEGWSVELPKAMHDQLDARTNSTWPTTWFAPRLTGKGPFADVYSVMANWGANHGVLTIGHVGADFITLAAMLRIPVCMHNVEEGKIYRPSSWSAHGMDTEGQDYRACQNYGPLYKR | – | – | binding result [4]: binds
RdFucI: L-fucose isomerase of Raoultella sp. KDH 14, amino acid sequence SEQ ID NO: 1, 591 amino acids (protein, Raoultella sp. KDH 14) MKRISLPKIGIRPVIDGRRMGVRESLEAQTMNMAKATAALISEKLRHACGAQIECVIADTCIAGMAESAACEEKFSRQNVGVTITVTPCWCYGSETIDMDPLRPKAIWGFNGTERPGAVYLAAALAAHSQKGIPAFSIYGHDVQDADDTTIPADVEEKLLRFARAGLAVASMKGKSYLSVGGVSMGIAGSIVDHNFFESWLGMKVQAVDMTELRRRIDQKIYDEVELEMALAWADKNFRYGEDQNAQHYKRDEEQSRAVLKESLLMAMCIRDMMQGNEKLAEKGLLEESLGYNAIAAGFQGQRHWTDQYPNGDTAEALLNSSFDWNGVREPFVVATENDSLNGVAMLMGHQLTGTAQVFADVRTYWSPDAVERVTGQPLTGLAEHGIIHLINSGSAALDGSCQQRDEEGKPTMKPHWEISQKEADACLAATEWCPAIHEYFRGGGYSSRFLTEGGVPFTMTRVNLIKGLGPVLQIAEGWSVELPKAMHDQLDARTNSTWPTTWFAPRLTGKGPFADVYSVMANWGANHGVLTIGHVGADFITLAAMLRIPVCMHNVEEGKIYRPSSWSAHGMDTEGQDYRACQNYGPLYKR | – | – | reaction rate of reverse reaction (L-fuculose to L-fucose) versus forward reaction [5]: about 5 fold; relative activity, of the maximum activity, at 30, 40 and 50° C. ([6]; 10 mM substrate, 1.5 μg enzyme, pH 7): ≥ 80%; temperature of highest activity ([6]; 10 mM substrate, 1.5 μg enzyme, pH 7, 10 to 80° C.): 40 °C; enzyme activity out of the 30 to 50° C. range ([6]; L-fuculose as substrate): less than 50%; relative maximum activity at pH 6 to 11 ([3]; sodium acetate, sodium phosphate and glycine-NaOH buffers): ≥ 70%
